Experimental data: patent US11203600B2 (Denali Therapeutics Inc., priority 2017, dated 2021)

Each compound was assayed against GST-hRIPK1 (8-327) (Homo sapiens (Human), UniProt Q13546) (assay: Fluorescent Polarization Binding (FP Binding) assay, RIPK1). Conditions: 10 nM GST-hRIPK1 (8-327), 5 nM fluorescent-labeled ligand, RT, 30 min, mean of at least two independent experiments.
Sequence of GST-hRIPK1 (8-327) (Q13546 8-327): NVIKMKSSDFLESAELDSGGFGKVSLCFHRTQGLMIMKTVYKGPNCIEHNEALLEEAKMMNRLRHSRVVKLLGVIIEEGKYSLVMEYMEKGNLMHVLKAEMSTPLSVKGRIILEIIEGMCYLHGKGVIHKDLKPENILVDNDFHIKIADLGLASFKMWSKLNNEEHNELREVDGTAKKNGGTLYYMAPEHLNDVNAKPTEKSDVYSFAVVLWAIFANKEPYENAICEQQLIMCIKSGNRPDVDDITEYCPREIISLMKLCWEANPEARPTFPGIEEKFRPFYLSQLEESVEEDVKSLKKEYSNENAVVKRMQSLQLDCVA
Outline: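 Compound displacement of 5 nM labelled ligand from 10 nM GST-hRIPK1 (8-327) was read as FP (531/595 nm) after 30 min at RT. Buffer: HEPES pH 7.5, NaCl, MgCl2, CHAPS, DTT, Pluronic; 1% DMSO final. IC50s were averaged over at least two independent runs.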
Work on `N#Cc1cncc2c1OCCN(C(=O)C1(F)CCN(c3cc4ccccc4cn3)CC1)C2` [Example 199, 4-[4-fluoro-1-(3-isoquinolyl)piperidine-4-carbonyl]-3,5-dihydro-2H-pyrido[3,4-f][1,4]oxazepine-9-carbonitrile] yielded an IC50 of 0.0001 to 0.1 µM.

Same assay, conditions: GST-hRIPK1 (8-327), mean of at least two independent experiments
Compound `N#Cc1cncc2c1OCCN(C(=O)C1(F)CCN(c3ccc4ccccc4n3)CC1)C2` [Example 200, 4-[4-fluoro-1-(2-quinolyl)piperidine-4-carbonyl]-3,5-dihydro-2H-pyrido[3,4-f][1,4]oxazepine-9-carbonitrile] has an IC50 of 0.0001 to 0.1 µM. Work on `N#Cc1cncc2c1OCCN(C(=O)C1(F)CCN(c3ncc(F)c(C4CC4)n3)CC1)C2` [Example 201, 4-[1-(4-cyclopropyl-5-fluoro-pyrimidin-2-yl)-4-fluoro-piperidine-4-carbonyl]-3,5-dihydro-2H-pyrido[3,4-f][1,4]oxazepine-9-carbonitrile] yielded an IC50 of 0.0001 to 0.1 µM. `N#Cc1cncc2c1OCCN(C(=O)C1(F)CCN(c3nc(Cl)ncc3F)CC1)C2` [Example 202, 4-[1-(2-chloro-5-fluoro-pyrimidin-4-yl)-4-fluoro-piperidine-4-carbonyl]-3,5-dihydro-2H-pyrido[3,4-f][1,4]oxazepine-9-carbonitrile] gave an IC50 of 0.0001 to 0.1 µM. For `O=C(C1CCN(c2ncc(F)cn2)CC1)N1CCCc2ccccc2C1` [Example 203, [1-(5-fluoropyrimidin-2-yl)-4-piperidyl]-(1,3,4,5-tetrahydro-2-benzazepin-2-yl)methanone], the IC50 was 0.1 to 1 µM. Work on `N#Cc1cncc2c1OCCN(C(=O)C1CCN(c3ccnc4ccnn34)CC1)C2` [Example 205, 4-(1-pyrazolo[1,5-a]pyrimidin-7-ylpiperidine-4-carbonyl)-3,5-dihydro-2H-pyrido[3,4-f][1,4]oxazepine-9-carbonitrile] yielded an IC50 of 0.1 to 1 µM. Compound `N#Cc1cncc2c1OCCN(C(=O)C1(F)CCN(c3nccn4ncnc34)CC1)C2` [Example 206, 4-[4-fluoro-1-([1,2,4]triazolo[1,5-a]pyrazin-8-yl)piperidine-4-carbonyl]-3,5-dihydro-2H-pyrido[3,4-f][1,4]oxazepine-9-carbonitrile] has an IC50 of 0.0001 to 0.1 µM. `CCC(C)(C)C(=O)N1CCOc2c(F)cncc2C1` [Example 207, 1-(9-fluoro-3,5-dihydro-2H-pyrido[3,4-f][1,4]oxazepin-4-yl)-2,2-dimethyl-butan-1-one] showed an IC50 of 0.1 to 1 µM. Work on `N#Cc1cncc2c1OCCN(C(=O)C1(O)CCN(c3ncc(F)cn3)CC1F)C2` (stereo not drawn) [Example 208, 4-[3-fluoro-1-(5-fluoropyrimidin-2-yl)-4-hydroxy-piperidine-4-carbonyl]-3,5-dihydro-2H-pyrido[3,4-f][1,4]oxazepine-9-carbonitrile] yielded an IC50 of 0.1 to 1 µM. `COC1(C(=O)N2CCOc3c(F)cncc3C2)CCN(c2ncnc(OCC(F)F)n2)CC1` [Example 209, [1-[4-(2,2-difluoroethoxy)-1,3,5-triazin-2-yl]-4-methoxy-4-piperidyl]-(9-fluoro-3,5-dihydro-2H-pyrido[3,4-f][1,4]oxazepin-4-yl)methanone] showed an IC50 of 0.1 to 1 µM. With `O=C(C1CCN(c2ncnc(OCC(F)F)n2)CC1)N1CCOc2c(F)cncc2C1` [Example 210, [1-[4-(2,2-difluoroethoxy)-1,3,5-triazin-2-yl]-4-piperidyl]-(9-fluoro-3,5-dihydro-2H-pyrido[3,4-f][1,4]oxazepin-4-yl)methanone] the IC50 was 0.1 to 1 µM. `N#Cc1cncc2c1OCCN(C(=O)C1CCN(c3ncc(F)cn3)CC1O)C2` (stereo not drawn) [Example 211, 4-[1-(5-fluoropyrimidin-2-yl)-3-hydroxy-piperidine-4-carbonyl]-3,5-dihydro-2H-pyrido[3,4-f][1,4]oxazepine-9-carbonitrile] was tested, and the IC50 was 0.1 to 1 µM. `N#Cc1cncc2c1OCCN(C(=O)C1(F)CCN(c3ccnc4ncnn34)CC1)C2` [Example 212, 4-[4-fluoro-1-([1,2,4]triazolo[1,5-a]pyrimidin-7-yl)piperidine-4-carbonyl]-3,5-dihydro-2H-pyrido[3,4-f][1,4]oxazepine-9-carbonitrile] showed an IC50 of 0.1 to 1 µM. In the case of `CC1(C(=O)N2CCOc3c(C#N)cncc3C2)CCN(c2ncc(Cl)cn2)CC1(F)F` (stereo not drawn) [Example 215, 4-(1-(5-chloropyrimidin-2-yl)-3,3-difluoro-4-methylpiperidine-4-carbonyl)-2,3,4,5-tetrahydropyrido[3,4-f][1,4]oxazepine-9-carbonitrile], the IC50 is reported as 0.0001 to 0.1 µM. In the case of `CC1(C(=O)N2CCOc3c(C#N)cncc3C2)CCN(c2ncc(F)c(=O)[nH]2)CC1(F)F` (stereo not drawn) [Example 216, 4-[3,3-difluoro-1-(5-fluoro-6-oxo-1H-pyrimidin-2-yl)-4-methyl-piperidine-4-carbonyl]-3,5-dihydro-2H-pyrido[3,4-f][1,4]oxazepine-9-carbonitrile], the IC50 is reported as 0.1 to 1 µM. With `COCCOc1nc(N2CCC(C)(C(=O)N3CCOc4c(C#N)cncc4C3)C(F)(F)C2)ncc1F` (stereo not drawn) [Example 217, 4-[3,3-difluoro-1-[5-fluoro-4-(2-methoxyethoxy)pyrimidin-2-yl]-4-methyl-piperidine-4-carbonyl]-3,5-dihydro-2H-pyrido[3,4-f][1,4]oxazepine-9-carbonitrile] the IC50 was 0.0001 to 0.1 µM. `N#Cc1cncc2c1OCCN(C(=O)C1CCN(c3ncnn4ccnc34)CC1(F)F)C2` (stereo not drawn) [Example 218, 4-(3,3-difluoro-1-imidazo[2,1-f][1,2,41triazin-4-yl-piperidine-4-carbonyl)-3,5-dihydro-2H-pyrido[3,4-f][1,4]oxazepine-9-carbonitrile)] gave an IC50 of 0.1 to 1 µM. `N#Cc1cncc2c1OCCN(C(=O)C1CCN(c3nccn4ncnc34)CC1(F)F)C2` (stereo not drawn) [Example 219, 4-[3,3-difluoro-1-([1,2,4]triazolo[1,5-a]pyrazin-8-yl)piperidine-4-carbonyl]-3,5-dihydro-2H-pyrido[3,4-f][1,4]oxazepine-9-carbonitrile] gave an IC50 of 0.1 to 1 µM. In the case of `N#Cc1cncc2c1OCCN(C(=O)C1CCN(c3ncnc4ccnn34)CC1(F)F)C2` (stereo not drawn) [Example 220], the IC50 is reported as 0.1 to 1 µM. In the case of `N#Cc1cncc2c1OCCN(C(=O)C1CCN(c3ccnc4ccnn34)CC1(F)F)C2` (stereo not drawn) [Example 221, 4-(3,3-difluoro-1-pyrazolo[1,5-a]pyrimidin-7-yl-piperidine-4-carbonyl)-3,5-dihydro-2H-pyrido[3,4-f][1,4]oxazepine-9-carbonitrile], the IC50 is reported as 0.1 to 1 µM. Compound `CC1(C(=O)N2CCOc3c(C#N)cncc3C2)CCN(c2nccn3ncnc23)CC1(F)F` (stereo not drawn) [Example 222, 4-[3,3-difluoro-4-methyl-1-([1,2,4]triazolo[1,5-a]pyrazin-8-yl)piperidine-4-carbonyl]-3,5-dihydro-2H-pyrido[3,4-f][1,4]oxazepine-9-carbonitrile] has an IC50 of 0.0001 to 0.1 µM. In the case of `Cn1nccc(N2CCC(C(=O)N3CCOc4c(C#N)cncc4C3)[C@@H](F)C2)c1=O` (stereo partly drawn) [Example 224, 4-[(3,4)-trans-3-fluoro-1-(2-methyl-3-oxo-pyridazin-4-yl)piperidine-4-carbonyl]-3,5-dihydro-2H-pyrido[3,4-f][1,4]oxazepine-9-carbonitrile], the IC50 is reported as greater than 1 µM. Work on `N#Cc1cncc2c1OCCN(C(=O)C1CCN(c3nccn4ncnc34)C[C@@H]1F)C2` (stereo partly drawn) [Example 225, 4-[(3,4)-trans-3-fluoro-1-([1,2,4]triazolo[1,5-a]pyrazin-8-yl)piperidine-4-carbonyl]-3,5-dihydro-2H-pyrido[3,4-f][1,4]oxazepine-9-carbonitrile] yielded an IC50 of 0.0001 to 0.1 µM. `N#Cc1cncc2c1OCCN(C(=O)C1CCN(c3ccnc4c(F)cnn34)C[C@@H]1F)C2` (stereo partly drawn) [Example 226, 4-[(3,4)-trans-3-fluoro-1-(3-fluoropyrazolo[1,5-a]pyrimidin-7-yl)piperidine-4-carbonyl]-3,5-dihydro-2H-pyrido[3,4-f][1,4]oxazepine-9-carbonitrile] was tested, and the IC50 was 0.0001 to 0.1 µM.
